15 compounds from US10538555B2, “Macrocyclic inhibitors of the PD-1/PD-L1 and CD80(B7-1)/PD-L1 protein/protein interactions” (BRISTOL-MYERS SQUIBB COMPANY, priority 2014, dated 2020) can be followed below.

pIC50: −log10 of the molar value. Read-outs that look alike come from different tables or passages of the source. Where a SMILES comes first, the peptide text is derived from it. Bridges are numbered along the chain shown (N, C = ends). [ ]: non-standard residue; d: D form. ξ: configuration not given here. Hyp = O=C(O)[C@@H]1C[C@@H](O)CN1; NMeNle = CCCC[C@H](NC)C(=O)O; hSer = N[C@@H](CCO)C(=O)O; NMeA = CN[C@@H](C)C(=O)O; Dab = NCC[C@H](N)C(=O)O; Dap = NC[C@H](N)C(=O)O; ξC = NC(CS)C(=O)O

The test deals with T1, Human PD-L1/PD-1 (Homo sapiens, UniProt Q9NZQ7).
T1 construct: TVMV protease cleavage site (C); made in house; host or cells: HEK293T cells
Put plainly: HTRF Human PD-L1/PD-1 binding assay (PD-1-Ig/PD-L1-His). Particulars: PD-L1-His 10 nM, PD-1-Ig 20 nM. A digest of the protocol: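 Soluble HEK293T-expressed proteins: hPD-L1-His 10 nM, hPD-1-Ig 20 nM final. Cpd + PD-L1 15 min, + PD-1 15 min, + Eu anti-Ig 1 nM/APC anti-His 20 nM 30 min. Buffer dPBS, 0.1% BSA, 0.05% Tween-20. TR-FRET 665/620.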

Setting [1] is: class symbol, read-out: HTRF Human PD-L1/PD-1 Binding Assay IC50 Range.

T1 sequence (Q9NZQ7 with tags, fused parts or gaps): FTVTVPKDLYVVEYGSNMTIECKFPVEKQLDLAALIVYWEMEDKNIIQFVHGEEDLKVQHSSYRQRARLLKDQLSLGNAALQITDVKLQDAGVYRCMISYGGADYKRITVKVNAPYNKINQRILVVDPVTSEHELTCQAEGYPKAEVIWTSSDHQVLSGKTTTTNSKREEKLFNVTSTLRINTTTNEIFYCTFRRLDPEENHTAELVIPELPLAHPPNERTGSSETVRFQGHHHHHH

On to `CCCC[C@H]1C(=O)N(C)[C@@H](CCCC)C(=O)N[C@@H](CCC(=O)O)C(=O)NC(C(=O)NCC(N)=O)CSCC(=O)N[C@@H](Cc2ccc(O)cc2)C(=O)N(C)[C@@H](C)C(=O)N[C@@H](CC(N)=O)C(=O)N2CCC[C@H]2C(=O)N[C@@H](CC(N)=O)C(=O)N[C@@H](CC(C)C)C(=O)N2C[C@H](O)C[C@H]2C(=O)N[C@@H](Cc2c[nH]c3ccccc23)C(=O)N[C@@H](CC(=O)O)C(=O)N[C@@H](Cc2c[nH]c3ccccc23)C(=O)N1C` (stereo partly drawn) [Example 9173] ({CH2CO}-Y[NMeA]NPNL[Hyp]WDW[NMeNle][NMeNle]E[ξC]G-NH2; thioether N-14), for which the pIC50 under setting [1] is 6.00 to 7.00.

Turning to `CCCC[C@H]1C(=O)N(C)[C@@H](CCCC)C(=O)N[C@@H](CCC(=O)O)C(=O)NC(C(=O)NCC(N)=O)CSCC(=O)N[C@@H](Cc2ccc(O)cc2)C(=O)N(C)[C@@H](C)C(=O)N[C@@H](CC(N)=O)C(=O)N2CCC[C@H]2C(=O)N[C@@H](Cc2c[nH]cn2)C(=O)N[C@@H](CC(N)=O)C(=O)N2CCC[C@H]2C(=O)N[C@@H](Cc2c[nH]c3ccccc23)C(=O)N[C@@H](CC(=O)O)C(=O)N[C@@H](Cc2c[nH]c3ccccc23)C(=O)N1C` (stereo partly drawn) [Example 9174] ({CH2CO}-Y[NMeA]NPHNPWDW[NMeNle][NMeNle]E[ξC]G-NH2; thioether N-14), the pIC50 under setting [1] is 6.00 to 7.00.

`CCCC[C@H]1C(=O)N(C)[C@@H](CCCC)C(=O)N[C@@H](CCC(=O)O)C(=O)NC(C(=O)NCC(N)=O)CSCC(=O)N[C@@H](Cc2ccc(O)cc2)C(=O)N(C)[C@@H](C)C(=O)N[C@@H](CC(N)=O)C(=O)N2CCC[C@H]2C(=O)N[C@@H](Cc2c[nH]cn2)C(=O)N[C@@H](CC(N)=O)C(=O)N2C[C@H](O)C[C@H]2C(=O)N[C@@H](Cc2c[nH]c3ccccc23)C(=O)N[C@@H](CC(=O)O)C(=O)N[C@@H](Cc2c[nH]c3ccccc23)C(=O)N1C` (stereo partly drawn) [Example 9175] ({CH2CO}-Y[NMeA]NPHN[Hyp]WDW[NMeNle][NMeNle]E[ξC]G-NH2; thioether N-14): the pIC50 (read-out: HTRF Human PD-L1/PD-1 Binding Assay IC50) is 6.44.

As for `CCCC[C@H]1C(=O)N(C)[C@@H](CCCC)C(=O)N[C@@H](CCC(=O)O)C(=O)NC(C(=O)NCC(N)=O)CSCC(=O)N[C@@H](Cc2ccc(O)cc2)C(=O)N(C)[C@@H](C)C(=O)N[C@@H](CC(N)=O)C(=O)N2CCC[C@H]2C(=O)N[C@@H](CC(N)=O)C(=O)N[C@@H](CC(C)C)C(=O)N2CCC[C@H]2C(=O)N[C@@H](Cc2c[nH]c3ccccc23)C(=O)N[C@@H](CN)C(=O)N[C@@H](Cc2c[nH]c3ccccc23)C(=O)N1C` (stereo partly drawn) [Example 9176] ({CH2CO}-Y[NMeA]NPNLPW[Dap]W[NMeNle][NMeNle]E[ξC]G-NH2; thioether N-14), the pIC50 under setting [1] was 6.00 to 7.00.

`CCCC[C@H]1C(=O)N(C)[C@@H](CCCC)C(=O)N[C@@H](CCC(=O)O)C(=O)NC(C(=O)NCC(N)=O)CSCC(=O)N[C@@H](Cc2ccc(O)cc2)C(=O)N(C)[C@@H](C)C(=O)N[C@@H](CC(N)=O)C(=O)N2CCC[C@H]2C(=O)N[C@@H](CC(N)=O)C(=O)N[C@@H](CC(C)C)C(=O)N2C[C@H](O)C[C@H]2C(=O)N[C@@H](Cc2c[nH]c3ccccc23)C(=O)N[C@@H](CN)C(=O)N[C@@H](Cc2c[nH]c3ccccc23)C(=O)N1C` (stereo partly drawn) [Example 9177] ({CH2CO}-Y[NMeA]NPNL[Hyp]W[Dap]W[NMeNle][NMeNle]E[ξC]G-NH2; thioether N-14): the pIC50 under setting [1] is 6.00 to 7.00. Turning to `CCCC[C@H]1C(=O)N(C)[C@@H](CCCC)C(=O)N[C@@H](CCC(=O)O)C(=O)NC(C(=O)NCC(N)=O)CSCC(=O)N[C@@H](Cc2ccc(O)cc2)C(=O)N(C)[C@@H](C)C(=O)N[C@@H](CC(N)=O)C(=O)N2CCC[C@H]2C(=O)N[C@@H](Cc2c[nH]cn2)C(=O)N[C@@H](CC(N)=O)C(=O)N2CCC[C@H]2C(=O)N[C@@H](Cc2c[nH]c3ccccc23)C(=O)N[C@@H](CN)C(=O)N[C@@H](Cc2c[nH]c3ccccc23)C(=O)N1C` (stereo partly drawn) [Example 9178] ({CH2CO}-Y[NMeA]NPHNPW[Dap]W[NMeNle][NMeNle]E[ξC]G-NH2; thioether N-14), the pIC50 under setting [1] is 6.00 to 7.00. Same read-out and setting: with `CCCC[C@H]1C(=O)N(C)[C@@H](CCCC)C(=O)N[C@@H](CCC(=O)O)C(=O)NC(C(=O)NCC(N)=O)CSCC(=O)N[C@@H](Cc2ccc(O)cc2)C(=O)N(C)[C@@H](C)C(=O)N[C@@H](CC(N)=O)C(=O)N2CCC[C@H]2C(=O)N[C@@H](Cc2c[nH]cn2)C(=O)N[C@@H](CC(N)=O)C(=O)N2C[C@H](O)C[C@H]2C(=O)N[C@@H](Cc2c[nH]c3ccccc23)C(=O)N[C@@H](CN)C(=O)N[C@@H](Cc2c[nH]c3ccccc23)C(=O)N1C` (stereo partly drawn) [Example 9179] ({CH2CO}-Y[NMeA]NPHN[Hyp]W[Dap]W[NMeNle][NMeNle]E[ξC]G-NH2; thioether N-14) the figure was 6.00 to 7.00; with `CCCC[C@H]1C(=O)N(C)[C@@H](CCCC)C(=O)N[C@@H](CCC(=O)O)C(=O)NC(C(=O)NCC(N)=O)CSCC(=O)N[C@@H](Cc2ccc(O)cc2)C(=O)N(C)[C@@H](C)C(=O)N[C@@H](CC(N)=O)C(=O)N2CCC[C@H]2C(=O)N[C@@H](CC(N)=O)C(=O)N[C@@H](CC(C)C)C(=O)N2CCC[C@H]2C(=O)N[C@@H](Cc2c[nH]c3ccccc23)C(=O)N[C@@H](CCN)C(=O)N[C@@H](Cc2c[nH]c3ccccc23)C(=O)N1C` (stereo partly drawn) [Example 9180] ({CH2CO}-Y[NMeA]NPNLPW[Dab]W[NMeNle][NMeNle]E[ξC]G-NH2; thioether N-14), 8.00 to 9.00. On the same count and under the same terms, the result for `CCCC[C@H]1C(=O)N(C)[C@@H](CCCC)C(=O)N[C@@H](CCC(=O)O)C(=O)NC(C(=O)NCC(N)=O)CSCC(=O)N[C@@H](Cc2ccc(O)cc2)C(=O)N(C)[C@@H](C)C(=O)N[C@@H](CC(N)=O)C(=O)N2CCC[C@H]2C(=O)N[C@@H](CC(N)=O)C(=O)N[C@@H](CC(C)C)C(=O)N2C[C@H](O)C[C@H]2C(=O)N[C@@H](Cc2c[nH]c3ccccc23)C(=O)N[C@@H](CCN)C(=O)N[C@@H](Cc2c[nH]c3ccccc23)C(=O)N1C` (stereo partly drawn) [Example 9181] ({CH2CO}-Y[NMeA]NPNL[Hyp]W[Dab]W[NMeNle][NMeNle]E[ξC]G-NH2; thioether N-14) reads 8.00 to 9.00. With `CCCC[C@H]1C(=O)N(C)[C@@H](CCCC)C(=O)N[C@@H](CCC(=O)O)C(=O)NC(C(=O)NCC(N)=O)CSCC(=O)N[C@@H](Cc2ccc(O)cc2)C(=O)N(C)[C@@H](C)C(=O)N[C@@H](CC(N)=O)C(=O)N2CCC[C@H]2C(=O)N[C@@H](Cc2c[nH]cn2)C(=O)N[C@@H](CC(N)=O)C(=O)N2CCC[C@H]2C(=O)N[C@@H](Cc2c[nH]c3ccccc23)C(=O)N[C@@H](CCN)C(=O)N[C@@H](Cc2c[nH]c3ccccc23)C(=O)N1C` (stereo partly drawn) [Example 9182] ({CH2CO}-Y[NMeA]NPHNPW[Dab]W[NMeNle][NMeNle]E[ξC]G-NH2; thioether N-14), under setting [1], the pIC50 was 8.00 to 9.00. Same read-out and setting: the result for `CCCC[C@H]1C(=O)N(C)[C@@H](CCCC)C(=O)N[C@@H](CCC(=O)O)C(=O)NC(C(=O)NCC(N)=O)CSCC(=O)N[C@@H](Cc2ccc(O)cc2)C(=O)N(C)[C@@H](C)C(=O)N[C@@H](CC(N)=O)C(=O)N2CCC[C@H]2C(=O)N[C@@H](Cc2c[nH]cn2)C(=O)N[C@@H](CC(N)=O)C(=O)N2C[C@H](O)C[C@H]2C(=O)N[C@@H](Cc2c[nH]c3ccccc23)C(=O)N[C@@H](CCN)C(=O)N[C@@H](Cc2c[nH]c3ccccc23)C(=O)N1C` (stereo partly drawn) [Example 9183] ({CH2CO}-Y[NMeA]NPHN[Hyp]W[Dab]W[NMeNle][NMeNle]E[ξC]G-NH2; thioether N-14) reads 8.00 to 9.00. On the same count and under the same terms, with `CCCC[C@H]1C(=O)N(C)[C@@H](CCCC)C(=O)N[C@@H](CCC(=O)O)C(=O)NC(C(=O)NCC(N)=O)CSCC(=O)N[C@@H](Cc2ccc(O)cc2)C(=O)N(C)[C@@H](C)C(=O)N[C@@H](CC(N)=O)C(=O)N2CCC[C@H]2C(=O)N[C@@H](CC(N)=O)C(=O)N[C@@H](CC(C)C)C(=O)N2CCC[C@H]2C(=O)N[C@@H](Cc2c[nH]c3ccccc23)C(=O)N[C@@H](CCO)C(=O)N[C@@H](Cc2c[nH]c3ccccc23)C(=O)N1C` (stereo partly drawn) [Example 9184] ({CH2CO}-Y[NMeA]NPNLPW[hSer]W[NMeNle][NMeNle]E[ξC]G-NH2; thioether N-14) the figure was 7.00 to 8.00; with `CCCC[C@H]1C(=O)N(C)[C@@H](CCCC)C(=O)N[C@@H](CCC(=O)O)C(=O)NC(C(=O)NCC(N)=O)CSCC(=O)N[C@@H](Cc2ccc(O)cc2)C(=O)N(C)[C@@H](C)C(=O)N[C@@H](CC(N)=O)C(=O)N2CCC[C@H]2C(=O)N[C@@H](CC(N)=O)C(=O)N[C@@H](CC(C)C)C(=O)N2C[C@H](O)C[C@H]2C(=O)N[C@@H](Cc2c[nH]c3ccccc23)C(=O)N[C@@H](CCO)C(=O)N[C@@H](Cc2c[nH]c3ccccc23)C(=O)N1C` (stereo partly drawn) [Example 9185] ({CH2CO}-Y[NMeA]NPNL[Hyp]W[hSer]W[NMeNle][NMeNle]E[ξC]G-NH2; thioether N-14), 8.00 to 9.00.

For the compound `CCCC[C@H]1C(=O)N(C)[C@@H](CCCC)C(=O)N[C@@H](CCC(=O)O)C(=O)NC(C(=O)NCC(N)=O)CSCC(=O)N[C@@H](Cc2ccc(O)cc2)C(=O)N(C)[C@@H](C)C(=O)N[C@@H](CC(N)=O)C(=O)N2CCC[C@H]2C(=O)N[C@@H](Cc2c[nH]cn2)C(=O)N[C@@H](CC(N)=O)C(=O)N2CCC[C@H]2C(=O)N[C@@H](Cc2c[nH]c3ccccc23)C(=O)N[C@@H](CCO)C(=O)N[C@@H](Cc2c[nH]c3ccccc23)C(=O)N1C` (stereo partly drawn) [Example 9186] ({CH2CO}-Y[NMeA]NPHNPW[hSer]W[NMeNle][NMeNle]E[ξC]G-NH2; thioether N-14), the pIC50 under setting [1] is 7.00 to 8.00. As for `CCCC[C@H]1C(=O)N(C)[C@@H](CCCC)C(=O)N[C@@H](CCC(=O)O)C(=O)NC(C(=O)NCC(N)=O)CSCC(=O)N[C@@H](Cc2ccc(O)cc2)C(=O)N(C)[C@@H](C)C(=O)N[C@@H](CC(N)=O)C(=O)N2CCC[C@H]2C(=O)N[C@@H](Cc2c[nH]cn2)C(=O)N[C@@H](CC(N)=O)C(=O)N2C[C@H](O)C[C@H]2C(=O)N[C@@H](Cc2c[nH]c3ccccc23)C(=O)N[C@@H](CCO)C(=O)N[C@@H](Cc2c[nH]c3ccccc23)C(=O)N1C` (stereo partly drawn) [Example 9187] ({CH2CO}-Y[NMeA]NPHN[Hyp]W[hSer]W[NMeNle][NMeNle]E[ξC]G-NH2; thioether N-14), the pIC50 under setting [1] was 8.00 to 9.00.
